Results as given in ChEMBL document CHEMBL4627336, “Inhibitory effects of biseokeaniamide A against lipopolysaccharide-induced signal transduction” (Bioorg Med Chem Lett, 2020).
pIC50: −log10 of the molar value. Calls of active or inactive are those of the source. No cut-off for these calls is given here. Where a SMILES comes first, the peptide text is derived from it. Bridges are numbered along the chain shown (N, C = ends). [ ]: non-standard residue; d: D form. The star is where a group is joined. NMeF = CN[C@@H](Cc1ccccc1)C(=O)O; NMeV = CN[C@H](C(=O)O)C(C)C; X2 = CC[C@H](C)CCCCC(=O)*; dDab = NCC[C@@H](N)C(=O)O; Dab = NCC[C@H](N)C(=O)O; Butyryl = CCCC(=O)*; X1 = CN(Cc1nccs1)*

Experiments:
RAW264.7 [1] = test: Inhibition of LPS-induced IL-6 production in mouse RAW264.7 cells at 1 to 30 uM preincubated for 1 hr followed by LPS stimulation and measured after 24 hrs by ELISA; type: functional, cell-based
RAW264.7 [2] = test: Cytotoxicity against mouse RAW264.7 cells assessed as reduction in cell viability upto 30 uM incubated for 24 hrs in presence of LPS by MTT assay; type: cell-based; details: raw264.7, 24 h
RAW264.7 [3] = test: Inhibition of LPS-induced degraded IkappaBalpha regeneration in mouse RAW264.7 cells at 10 uM measured upto 90 mins by Western blot analysis; type: functional, cell-based
RAW264.7 [4] = test: Inhibition of LPS-induced NO production in mouse RAW264.7 cells preincubated for 1 hr followed by LPS stimulation and measured after 24 hrs by Griess reagent based assay; type: functional, cell-based
RAW264.7 [5] = test: Inhibition of LPS-induced iNOS expression in mouse RAW264.7 cells at preincubated for 1 hr followed by LPS stimulation and measured after 24 hrs by Western blot analysis; type: functional, cell-based
RAW264.7 [6] = test: Inhibition of LPS-induced IL-1beta production in mouse RAW264.7 cells preincubated for 1 hr followed by LPS stimulation and measured after 24 hrs by ELISA; type: functional, cell-based
RAW264.7 [7] = test: Inhibition of LPS-induced TNFalpha production in mouse RAW264.7 cells at 1 to 30 uM preincubated for 1 hr followed by LPS stimulation and measured after 24 hrs by ELISA; type: functional, cell-based
RAW264.7 [8] = test: Inhibition of LPS-induced IkappaBalpha degradation in mouse RAW264.7 cells at 1 to 30 uM incubated for 30 mins by Western blot analysis; type: functional, cell-based
RAW264.7 [9] = test: Inhibition of LPS-induced iNOS expression in mouse RAW264.7 cells at 1 uM preincubated for 1 hr followed by LPS stimulation and measured after 24 hrs by Western blot analysis relative to control; type: functional
RAW264.7 [10] = test: Inhibition of LPS-induced IL-6 production in mouse RAW264.7 cells at 1 uM preincubated for 1 hr followed by LPS stimulation and measured after 24 hrs by ELISA; type: functional, cell-based
RAW264.7 [11] = test: Inhibition of LPS-induced TNFalpha production in mouse RAW264.7 cells at 1 uM preincubated for 1 hr followed by LPS stimulation and measured after 24 hrs by ELISA; type: functional, cell-based
RAW264.7 [12] = test: Inhibition of LPS-induced IkappaBalpha degradation in mouse RAW264.7 cells at 1 uM incubated for 30 mins by Western blot analysis; type: functional, cell-based
RAW264.7 [13] = test: Inhibition of LPS-induced IL-1beta production in mouse RAW264.7 cells at 1 uM preincubated for 1 hr followed by LPS stimulation and measured after 24 hrs by ELISA; type: functional, cell-based
RAW264.7 [14] = test: Inhibition of LPS-induced NO production in mouse RAW264.7 cells at 0.1 to 10 uM preincubated for 1 hr followed by LPS stimulation and measured after 24 hrs by Griess reagent based assay; type: functional, cell-based

With CCCC(=O)N(C)[C@H](C(=O)N1CCC[C@H]1C(=O)N(C)[C@@H](Cc1ccccc1)C(=O)N[C@@H](CC(C)C)C(=O)N(C)[C@H](C(=O)N(C)Cc1nccs1)C(C)C)C(C)C (Butyryl-[NMeV]P[NMeF]L[NMeV]-X1) the inhibition (RAW264.7 [1]) was “inactive”, the Activity (RAW264.7 [2]) was “Non-Toxic” and the inhibition (RAW264.7 [3]) was “Active”. The pIC50 (RAW264.7 [4]) was 5.19, the inhibition (RAW264.7 [4]) was “Dose-dependent effect” and the inhibition (RAW264.7 [5]) was “Dose-dependent effect”. For the same compound, the pIC50 (RAW264.7 [6]) was 4.84, the inhibition (RAW264.7 [6]) was “Dose-dependent effect” and the inhibition (RAW264.7 [7]) was “inactive”. For the same compound, the inhibition (RAW264.7 [8]) was “inactive”.
CC[C@H](C)CCCCC(=O)N[C@@H](CCN)C(=O)N[C@H](C(=O)N[C@@H](CCN)C(=O)N[C@H]1CCNC(=O)[C@H]([C@@H](C)O)NC(=O)[C@H](CCN)NC(=O)[C@H](CCN)NC(=O)[C@H](CC(C)C)NC(=O)[C@@H](Cc2ccccc2)NC(=O)[C@H](CCN)NC1=O)[C@@H](C)O (X2-[Dab]T[Dab][Dab][Dab][dF]L[Dab][Dab]T; lactam 4-C) showed an inhibition at 1 µM (RAW264.7 [9]) of 100%.
CC[C@H](C)CCCCC(=O)N[C@@H](CCN)C(=O)N[C@H](C(=O)N[C@@H](CCN)C(=O)N[C@H]1CCNC(=O)[C@H]([C@@H](C)O)NC(=O)[C@H](CCN)NC(=O)[C@H](CCN)NC(=O)[C@H](CC(C)C)NC(=O)[C@@H](Cc2ccccc2)NC(=O)[C@@H](CCN)NC1=O)[C@@H](C)O (X2-[Dab]T[Dab][Dab][dDab][dF]L[Dab][Dab]T; lactam 4-C) was tested, and the inhibition (RAW264.7 [10]) was “Active”, the inhibition (RAW264.7 [11]) was “Active” and the inhibition (RAW264.7 [12]) was “Active”. The inhibition (RAW264.7 [13]) was “Active” and the inhibition (RAW264.7 [14]) was “Active”.
